Results on 10 compounds are retold here after ChEMBL document CHEMBL5465560, “Selectivity Literature for EUbOPEN Chemogenomic Library” (2024).

Test [1] addresses T1, Tyrosine-protein kinase Mer (Homo sapiens) (UniProt Q12866).
T1 sequence (whole entry): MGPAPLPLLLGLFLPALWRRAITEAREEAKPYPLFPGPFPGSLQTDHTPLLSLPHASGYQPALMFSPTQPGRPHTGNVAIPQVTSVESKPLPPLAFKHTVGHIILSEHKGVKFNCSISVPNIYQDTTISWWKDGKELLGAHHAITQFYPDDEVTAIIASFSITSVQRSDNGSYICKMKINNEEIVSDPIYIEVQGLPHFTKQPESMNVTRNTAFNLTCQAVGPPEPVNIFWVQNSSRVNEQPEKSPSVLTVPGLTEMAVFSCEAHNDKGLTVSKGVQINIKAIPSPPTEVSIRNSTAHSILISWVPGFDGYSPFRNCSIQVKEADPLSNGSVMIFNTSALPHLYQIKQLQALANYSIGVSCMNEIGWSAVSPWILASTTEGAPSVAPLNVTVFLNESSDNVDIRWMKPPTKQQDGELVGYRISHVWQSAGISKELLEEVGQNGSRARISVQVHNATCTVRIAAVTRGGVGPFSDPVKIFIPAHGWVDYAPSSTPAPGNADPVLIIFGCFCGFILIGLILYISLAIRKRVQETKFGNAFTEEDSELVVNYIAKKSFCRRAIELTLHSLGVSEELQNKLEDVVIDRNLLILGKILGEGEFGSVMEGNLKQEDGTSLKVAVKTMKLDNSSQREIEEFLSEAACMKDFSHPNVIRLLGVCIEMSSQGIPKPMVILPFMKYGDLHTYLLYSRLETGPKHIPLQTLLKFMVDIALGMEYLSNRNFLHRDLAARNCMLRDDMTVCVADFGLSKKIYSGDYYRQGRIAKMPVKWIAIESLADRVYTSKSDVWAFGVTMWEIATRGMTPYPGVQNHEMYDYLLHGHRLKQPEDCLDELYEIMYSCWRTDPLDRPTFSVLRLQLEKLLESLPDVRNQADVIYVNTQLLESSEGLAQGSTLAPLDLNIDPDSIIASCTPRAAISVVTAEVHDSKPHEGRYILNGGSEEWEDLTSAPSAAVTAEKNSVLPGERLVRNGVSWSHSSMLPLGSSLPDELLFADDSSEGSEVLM
The experiment in a line: Selectivity interaction (LanthaScreen Eu Kinase Binding Assay) EUB0001632a MERTK. To be noted: at 10 µM.

Test [2] concerns the target BMP-2-inducible protein kinase (Homo sapiens) (UniProt Q9NSY1). The experiment in a line: Selectivity interaction (KinomeScan (DiscoverX)) EUB0000607a BMP2K. To be noted: at 10 µM.
The target of test [3] is Serine/threonine-protein kinase Chk2 (Homo sapiens) (UniProt O96017). As to the kind of experiment: Selectivity interaction (SelectScreen profiling (Invitrogen)) EUB0000607a CHEK2. To be noted: at 2 µM.
Test [4] has as its target Dual specificity protein kinase CLK1 (Homo sapiens, UniProt P49759). As to the kind of experiment: Selectivity interaction (SelectScreen profiling (Invitrogen)) EUB0000607a CLK1. To be noted: at 2 µM.
Test [5] has as its target Serine/threonine-protein kinase WNK1 (Homo sapiens) (UniProt Q9H4A3). The experiment in a line: Selectivity interaction (KinomeScan (DiscoverX)) EUB0000607a WNK1. To be noted: at 10 µM.
For test [6], the target named is Homeodomain-interacting protein kinase 3 (Homo sapiens, UniProt Q9H422). The experiment in a line: Selectivity interaction (KinomeScan (DiscoverX)) EUB0000229b HIPK3. To be noted: at 10 µM.
Sequence of Homeodomain-interacting protein kinase 3 (Q9H422 whole entry, looked up): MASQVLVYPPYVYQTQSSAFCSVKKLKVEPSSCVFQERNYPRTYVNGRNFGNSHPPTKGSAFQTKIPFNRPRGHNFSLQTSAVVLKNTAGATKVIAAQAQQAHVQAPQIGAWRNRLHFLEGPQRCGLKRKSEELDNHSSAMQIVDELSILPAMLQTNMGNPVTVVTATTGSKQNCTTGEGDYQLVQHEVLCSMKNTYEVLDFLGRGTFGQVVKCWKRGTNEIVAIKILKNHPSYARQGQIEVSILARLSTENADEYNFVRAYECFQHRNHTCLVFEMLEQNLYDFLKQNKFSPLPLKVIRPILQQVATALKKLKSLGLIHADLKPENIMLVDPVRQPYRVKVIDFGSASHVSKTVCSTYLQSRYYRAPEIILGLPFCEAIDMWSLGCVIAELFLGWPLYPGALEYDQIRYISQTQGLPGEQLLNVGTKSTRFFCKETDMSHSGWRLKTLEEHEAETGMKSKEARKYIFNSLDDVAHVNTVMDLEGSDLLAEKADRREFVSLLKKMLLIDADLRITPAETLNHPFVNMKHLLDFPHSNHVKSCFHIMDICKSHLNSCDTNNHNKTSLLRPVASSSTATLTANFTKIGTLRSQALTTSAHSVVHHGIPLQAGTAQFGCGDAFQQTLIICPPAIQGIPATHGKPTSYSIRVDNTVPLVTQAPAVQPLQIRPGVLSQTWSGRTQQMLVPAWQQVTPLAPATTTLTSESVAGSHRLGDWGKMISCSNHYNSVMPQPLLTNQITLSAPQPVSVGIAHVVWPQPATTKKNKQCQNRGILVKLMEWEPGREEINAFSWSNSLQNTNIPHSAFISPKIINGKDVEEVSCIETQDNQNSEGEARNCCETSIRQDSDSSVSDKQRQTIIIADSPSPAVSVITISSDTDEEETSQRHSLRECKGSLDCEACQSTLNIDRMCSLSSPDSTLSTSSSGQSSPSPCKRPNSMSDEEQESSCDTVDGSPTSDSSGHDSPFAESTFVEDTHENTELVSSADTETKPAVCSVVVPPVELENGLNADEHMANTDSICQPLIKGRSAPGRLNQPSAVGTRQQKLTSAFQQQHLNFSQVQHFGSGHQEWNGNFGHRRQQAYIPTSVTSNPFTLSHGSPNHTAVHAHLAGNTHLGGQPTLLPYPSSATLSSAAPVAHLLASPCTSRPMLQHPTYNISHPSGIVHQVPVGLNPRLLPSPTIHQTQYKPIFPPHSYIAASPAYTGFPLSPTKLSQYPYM
Test [7] has as its target Histone-lysine N-methyltransferase KMT5C (Homo sapiens) (UniProt Q86Y97). The experiment in a line: Selectivity interaction (Methyltransferase screen (Scintillation proximity assays)) EUB0000255b SUV420H2.
In test [8] the target is Phosphatidylinositol 4-phosphate 5-kinase type-1 alpha (Homo sapiens) (UniProt Q99755). As to the kind of experiment: Selectivity interaction (KinomeScan (DiscoverX)) EUB0000655a PIP5K1A. To be noted: at 10 µM.
The target in test [9] is Tyrosine-protein kinase BTK (Homo sapiens, UniProt Q06187). As to the kind of experiment: Selectivity interaction (KinomeScan (DiscoverX)) EUB0001619a BTK. To be noted: at 1 µM.
Test [10] addresses Mitogen-activated protein kinase kinase kinase kinase 1 (Homo sapiens) (UniProt Q92918). The experiment in a line: Selectivity interaction (ActivX KiNativ screen (ex vivo kinase selectivity in human PBMCs)) EUB0001619a MAP4K1. The test is classed as cell-based. To be noted: PBMC, at 1 µM.
Test [11] addresses Serine/threonine-protein kinase 33 (Homo sapiens) (UniProt Q9BYT3). The experiment in a line: Selectivity interaction (Kinase panel (Invitrogen)) EUB0000639a STK33. To be noted: at 200 nM.
Test [12] deals with Phosphatidylinositol 4,5-bisphosphate 3-kinase catalytic subunit alpha isoform (Homo sapiens) (UniProt P42336). As to the kind of experiment: (§1) Selectivity interaction (KinomeScan (DiscoverX)) EUB0001049a PIK3CA. To be noted: at 1 µM.
For test [13], the system named is Phosphatidylinositol 4,5-bisphosphate 3-kinase catalytic subunit alpha isoform (Homo sapiens), P42336 [C420R]. The test is described as §1. To be noted: at 1 µM.
For test [14], the system named is Phosphatidylinositol 4,5-bisphosphate 3-kinase catalytic subunit alpha isoform (Homo sapiens), P42336 [E542K]. The description is as §1. To be noted: at 1 µM.
Test [15] relates to Phosphatidylinositol 4,5-bisphosphate 3-kinase catalytic subunit alpha isoform (Homo sapiens), P42336 [E545A]. The description is as §1. To be noted: at 1 µM.
Test [16] has as its system Phosphatidylinositol 4,5-bisphosphate 3-kinase catalytic subunit alpha isoform (Homo sapiens), P42336 [E545K]. The test is described as §1. To be noted: at 1 µM.
Test [17] has as its system Phosphatidylinositol 4,5-bisphosphate 3-kinase catalytic subunit alpha isoform (Homo sapiens), P42336 [H1047L]. Described as §1. To be noted: at 1 µM.
In test [18] the test system is Phosphatidylinositol 4,5-bisphosphate 3-kinase catalytic subunit alpha isoform (Homo sapiens), P42336 [H1047Y]. The description is as §1. To be noted: at 1 µM.
Sequence of Phosphatidylinositol 4,5-bisphosphate 3-kinase catalytic subunit alpha isoform (Homo sapiens), P42336 [H1047Y] (P42336 whole entry H1047Y, canonical isoform): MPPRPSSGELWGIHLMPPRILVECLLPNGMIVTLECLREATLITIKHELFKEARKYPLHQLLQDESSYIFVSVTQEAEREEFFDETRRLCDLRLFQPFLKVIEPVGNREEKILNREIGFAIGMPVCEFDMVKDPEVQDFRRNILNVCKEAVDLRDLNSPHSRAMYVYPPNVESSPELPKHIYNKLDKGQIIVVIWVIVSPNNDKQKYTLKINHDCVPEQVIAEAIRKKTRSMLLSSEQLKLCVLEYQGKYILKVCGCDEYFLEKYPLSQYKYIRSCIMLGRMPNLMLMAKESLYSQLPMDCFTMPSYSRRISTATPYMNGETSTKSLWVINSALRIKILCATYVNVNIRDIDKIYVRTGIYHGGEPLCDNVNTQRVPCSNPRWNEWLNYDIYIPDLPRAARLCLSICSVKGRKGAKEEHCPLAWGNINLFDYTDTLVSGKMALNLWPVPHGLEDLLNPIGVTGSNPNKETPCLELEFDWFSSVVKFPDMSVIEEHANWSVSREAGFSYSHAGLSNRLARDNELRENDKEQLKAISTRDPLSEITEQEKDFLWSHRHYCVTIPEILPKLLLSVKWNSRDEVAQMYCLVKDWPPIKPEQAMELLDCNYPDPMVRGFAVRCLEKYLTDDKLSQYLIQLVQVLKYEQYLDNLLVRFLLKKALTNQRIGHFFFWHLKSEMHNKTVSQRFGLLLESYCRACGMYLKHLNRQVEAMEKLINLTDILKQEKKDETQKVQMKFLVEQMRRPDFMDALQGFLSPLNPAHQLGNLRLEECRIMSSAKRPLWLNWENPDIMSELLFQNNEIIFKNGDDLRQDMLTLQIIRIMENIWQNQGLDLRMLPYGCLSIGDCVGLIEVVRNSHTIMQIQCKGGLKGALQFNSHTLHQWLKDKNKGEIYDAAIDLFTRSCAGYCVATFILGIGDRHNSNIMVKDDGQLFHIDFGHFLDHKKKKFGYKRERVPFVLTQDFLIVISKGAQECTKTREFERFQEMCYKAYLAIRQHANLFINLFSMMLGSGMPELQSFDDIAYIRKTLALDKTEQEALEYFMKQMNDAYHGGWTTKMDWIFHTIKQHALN
The test system of test [19] is Phosphatidylinositol 4,5-bisphosphate 3-kinase catalytic subunit alpha isoform (Homo sapiens), P42336 [I800L]. The description is as §1. To be noted: at 1 µM.
Test [20] deals with Phosphatidylinositol 4,5-bisphosphate 3-kinase catalytic subunit alpha isoform (Homo sapiens), P42336 [M1043I]. The test is described as §1. To be noted: at 1 µM.
The subject of test [21] is Phosphatidylinositol 4,5-bisphosphate 3-kinase catalytic subunit alpha isoform (Homo sapiens), P42336 [Q546K]. The test is described as §1. To be noted: at 1 µM.
Test [22] addresses Calcium/calmodulin-dependent protein kinase type II subunit delta (Homo sapiens) (UniProt Q13557). The experiment in a line: Selectivity interaction (ProQinase) EUB0000171b CAMK2D.
The target in test [23] is Phosphatidylinositol 4,5-bisphosphate 3-kinase catalytic subunit gamma isoform (Homo sapiens) (UniProt P48736). The experiment in a line: Selectivity interaction (KinomeScan (DiscoverX)) EUB0000045b PIK3CG. To be noted: at 1 µM.

Sequence of Histone-lysine N-methyltransferase KMT5C (Homo sapiens) (Q86Y97 whole entry, looked up): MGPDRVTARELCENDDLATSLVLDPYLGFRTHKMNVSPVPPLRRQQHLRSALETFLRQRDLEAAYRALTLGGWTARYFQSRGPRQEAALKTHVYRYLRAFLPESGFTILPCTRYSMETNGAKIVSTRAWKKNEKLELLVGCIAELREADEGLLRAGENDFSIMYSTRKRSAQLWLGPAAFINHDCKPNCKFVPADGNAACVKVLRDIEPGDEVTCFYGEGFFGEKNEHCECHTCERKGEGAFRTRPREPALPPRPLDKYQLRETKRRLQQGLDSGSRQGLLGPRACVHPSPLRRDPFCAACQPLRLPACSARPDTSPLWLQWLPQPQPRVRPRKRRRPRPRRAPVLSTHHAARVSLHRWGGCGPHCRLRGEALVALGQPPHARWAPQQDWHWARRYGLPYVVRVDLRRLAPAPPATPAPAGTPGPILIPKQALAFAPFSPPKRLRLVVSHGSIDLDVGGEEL
Sequence of Calcium/calmodulin-dependent protein kinase type II subunit delta (Homo sapiens) (Q13557 whole entry, canonical isoform): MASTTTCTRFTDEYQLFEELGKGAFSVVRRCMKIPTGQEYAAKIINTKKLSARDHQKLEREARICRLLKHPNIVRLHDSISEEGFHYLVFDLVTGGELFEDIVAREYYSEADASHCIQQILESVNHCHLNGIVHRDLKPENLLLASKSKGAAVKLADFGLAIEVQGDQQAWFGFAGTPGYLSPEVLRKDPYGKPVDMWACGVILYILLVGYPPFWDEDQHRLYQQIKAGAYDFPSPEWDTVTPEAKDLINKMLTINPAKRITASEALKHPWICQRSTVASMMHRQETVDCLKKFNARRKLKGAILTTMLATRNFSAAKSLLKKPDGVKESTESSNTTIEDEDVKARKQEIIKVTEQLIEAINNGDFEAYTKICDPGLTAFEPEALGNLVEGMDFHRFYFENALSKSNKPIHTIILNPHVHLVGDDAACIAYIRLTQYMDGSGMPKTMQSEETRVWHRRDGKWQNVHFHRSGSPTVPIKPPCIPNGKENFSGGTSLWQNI
Sequence of Phosphatidylinositol 4,5-bisphosphate 3-kinase catalytic subunit alpha isoform (Homo sapiens), P42336 [H1047L] (P42336 whole entry H1047L, canonical isoform): as the sequence (P42336 whole entry H1047Y, canonical isoform) above, with Y1047L counted along it
Sequence of Serine/threonine-protein kinase 33 (Homo sapiens) (Q9BYT3 whole entry, looked up, canonical isoform): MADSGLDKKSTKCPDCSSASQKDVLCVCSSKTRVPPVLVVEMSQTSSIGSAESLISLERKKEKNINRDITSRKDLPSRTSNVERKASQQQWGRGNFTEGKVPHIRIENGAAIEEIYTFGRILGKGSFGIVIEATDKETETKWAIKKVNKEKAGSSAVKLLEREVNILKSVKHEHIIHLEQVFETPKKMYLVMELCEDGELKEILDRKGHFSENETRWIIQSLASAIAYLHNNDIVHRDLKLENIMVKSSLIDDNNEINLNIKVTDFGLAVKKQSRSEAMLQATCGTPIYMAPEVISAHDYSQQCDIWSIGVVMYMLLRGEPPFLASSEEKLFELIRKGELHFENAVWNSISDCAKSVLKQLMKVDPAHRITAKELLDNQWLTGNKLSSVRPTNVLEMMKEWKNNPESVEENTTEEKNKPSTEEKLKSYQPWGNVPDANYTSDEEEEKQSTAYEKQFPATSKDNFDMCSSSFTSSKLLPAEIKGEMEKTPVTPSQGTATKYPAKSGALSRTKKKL

Consider `Cn1cc(-n2cnc3c(NCc4nc5cc(Cl)c(Cl)cc5[nH]4)nc(N4CCOCC4)nc32)cn1`, for which, in [1], the % of inhibition is -48.1%.

For the compound `CNC(=O)Nc1ccc(-c2nc(N3CC4CCC(C3)O4)c3cnn(C4CCC5(CC4)OCCO5)c3n2)cc1`, the % of control in test [2] amounted to 85%; in test [5], 95%. Besides, the results for the % of inhibition in test [3] and in test [4] were 3% and -3%, respectively.

Regarding `COc1cc(N(C)c2ccnc3ccc(C(F)(F)F)cc23)cc(OC)c1OC`, the % binding in [6] was 81%.

As to `COCCN1CCC(c2cc(CN(C)C(=O)c3cccc(Oc4ccccc4)c3)ccn2)CC1`, the values for the % activity in [7] (at 1 µM) and in test [7] (at 10 µM) were > 95% and > 90%, respectively.

The compound `CN(C)CCOc1ccc(-c2nc(-c3ccncc3)c(-c3ccc4c(c3)CC/C4=N\O)[nH]2)cc1` registered a % of control in test [8] of 100%.

`N#Cc1cccc(-c2c[nH]c3ncnc(N4CCOCC4)c23)c1` gave a % of control in test [9] of 100%. Also, the % of inhibition in test [10] is 7%.

With `CC[C@@H]1[C@H](F)C(=O)N[C@@H]1COc1nccc2cc(C(N)=O)c(OC)cc12` [ZIMLOVISERTIB], the % of inhibition in test [11] was found to be 6.96%.

As to `COc1cc(Nc2nc(C)cc(-c3cnn4nc(OC)ccc34)n2)cc(C(F)(F)F)c1`, the % of control in test [12] is 100%; in test [13], 76%; in [14], 59%; in test [15], 77%; in test [16], 71%; in [17] it was 100%. Besides, the % of control turned out to be 85% in test [18], 46% in test [19], 100% in [20] and 66% in [21].

Regarding `C=CC(=O)Nc1cccc(C(=O)Nc2ccc(Nc3cc(-c4[nH]c(SC)nc4C)ccn3)cc2)c1`, the % of control amounted to 95% in [22] (at 1 µM) and 92% in test [22] (at 5 µM).

`C=CC(=O)Nc1cc(-n2c(=O)ccc3cnc4ccc(-c5ccc(NS(C)(=O)=O)cc5)cc4c32)ccc1C` had a % of control in [23] of 2.8%.
